Measured values reported in patent US11230555B2, “Bicyclic RORγ modulators” (Escalier Biosciences B.V., priority 2018, dated 2022).

Target: T1, RORγt (Homo sapiens, UniProt P51449)
T1 construct: purchased reporter-cell kit
T1 sequence (P51449 269-508 limits assumed): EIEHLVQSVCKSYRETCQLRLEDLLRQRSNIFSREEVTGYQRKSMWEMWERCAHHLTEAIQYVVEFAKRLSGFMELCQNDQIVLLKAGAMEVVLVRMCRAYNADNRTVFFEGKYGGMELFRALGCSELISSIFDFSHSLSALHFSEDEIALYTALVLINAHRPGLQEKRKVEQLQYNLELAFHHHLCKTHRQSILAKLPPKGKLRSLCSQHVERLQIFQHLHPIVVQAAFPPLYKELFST
Experiment: Gal4 ligand binding assay (RORγt Gal fusion reporter assay)
Assay type: cell-based
Details: inverse agonists, luciferase reporter, 24h
Method: Compounds of the present invention were tested in a human RORγ ligand binding assay using a commercially available cell based ligand binding reporter assay in 96-well format (Cat #IB04001, INDIGO Biosciences, State College, Pa.). The N-terminal DNA binding domains (DBD) of the native RORγ and RORγt receptors have been substituted with that of the yeast GAL4-DBD and stably transfected in […] cells that also stably express luciferase under the regulation by upstream activation sequence of yeast Gal4. These cells constitutively express high level RORγ activity due to binding of endogenous co-factors. Both agonist and inverse agonist activity can be detected. The assay was performed according to kit manufacturer's instructions as follows. 10 mM compound stocks were diluted serially 1:3 with DMSO and further diluted with provided media to generate 10 titration points from 60 μM to 3 nM. These treatment conditions were added to the plates as 2× media in 100 μL volume. Each plate includes a positive control with 10 titration points as well as 6negative control wells with vehicle only, with final DMSO concentration of 0.2%. RORγ reporter cells were rapidly thawed and added to the plates in 100 μL volume. The plates were incubated for 24h in a 37° C. humidified 5% CO2incubator. Media was removed before the addition of room temperature luciferous detection substrate. After 5 minute incubation, relative light units (RLUs) were quantified using a plate reading luminometer. Data was normalized to positive control wells with only […]. Before establishing internal controls, ursolic acid was used as control.

Which IC50 does the source give for `Cc1cc(CN2CC3CCC2CN3S(C)(=O)=O)ccc1-c1ccc(C(O)(C(F)(F)F)C(F)(F)F)cc1` (stereo not drawn) [Example 50, 1,1,1,3,3,3-hexafluoro-2-(2′-methyl-4′-((5-(methylsulfonyl)-2,5-diazabicyclo[2.2.2]octan-2-yl)methyl)-[1,1′-biphenyl]-4-yl)propan-2-ol] here?
The IC50 was over 250 nM.

With `Cc1cc(CN2CC3CCC(C2)N3Cc2ccnnc2)ccc1-c1ccc(C(O)(C(F)(F)F)C(F)(F)F)cc1` [Example 51, 1,1,1,3,3,3-hexafluoro-2-(2′-methyl-4′-((8-(pyridazin-4-ylmethyl)-3,8-diazabicyclo[3.2.1]octan-3-yl)methyl)-[1,1′-biphenyl]-4-yl)propan-2-ol] as the molecule, how does the IC50 read?
Its IC50 is under 50 nM.

How did the IC50 turn out when `CCc1cc(CN2CC3CCC(C2)N3S(C)(=O)=O)ccc1-c1ccc(C(O)(C(F)(F)F)C(F)(F)F)cc1` [Example 52, 2-(2′-ethyl-4′-((8-(methylsulfonyl)-3,8-diazabicyclo[3.2.1]octan-3-yl)methyl)-[1,1′-biphenyl]-4-yl)-1,1,1,3,3,3-hexafluoropropan-2-ol] was run?
Its IC50 is under 50 nM.

How did the IC50 turn out when `CCc1cc(CN2CC3CCC(C2)N3Cc2ccncc2)ccc1-c1ccc(C(O)(C(F)(F)F)C(F)(F)F)cc1` [Example 53, 2-(2′-ethyl-4′-((8-(pyridin-4-ylmethyl)-3,8-diazabicyclo[3.2.1]octan-3-yl)methyl)-[1,1′-biphenyl]-4-yl)-1,1,1,3,3,3-hexafluoropropan-2-ol] was run?
The IC50 was under 50 nM.

Which IC50 does the source give for `COCC(=O)N1C2CCC1CN(Cc1ccc(-c3ccc(C(O)(C(F)(F)F)C(F)(F)F)cc3)c(C)c1)C2` [Example 54, 1-(3-((4′-(1,1,1,3,3,3-hexafluoro-2-hydroxypropan-2-yl)-2-methyl-[1,1′-biphenyl]-4-yl)methyl)-3,8-diazabicyclo[3.2.1]octan-8-yl)-2-methoxyethan-1-one] here?
The IC50 was 50 to 250 nM.

How did the IC50 turn out when `CS(=O)(=O)N1C2CCC1CN(Cc1ccc(-c3ccc(C(O)(C(F)(F)F)C(F)(F)F)cc3)c(Cl)c1)C2` [Example 55, 2-(2′-chloro-4′-((8-(methylsulfonyl)-3,8-diazabicyclo[3.2.1]octan-3-yl)methyl)-[1,1′-biphenyl]-4-yl)-1,1,1,3,3,3-hexafluoropropan-2-ol] was run?
The IC50 was 50 to 250 nM.

With `OC(c1ccc(-c2ccc(CN3CC4CCC(C3)N4Cc3ccncc3)cc2Cl)cc1)(C(F)(F)F)C(F)(F)F` [Example 56, 2-(2′-chloro-4′-((8-(pyridin-4-ylmethyl)-3,8-diazabicyclo[3.2.1]octan-3-yl)methyl)-[1,1′-biphenyl]-4-yl)-1,1,1,3,3,3-hexafluoropropan-2-ol] as the molecule, how does the IC50 read?
The IC50 was under 50 nM.

Which IC50 does the source give for `CS(=O)(=O)N1C2CCC1CN(Cc1ccc(-c3ccc(C(O)(C(F)(F)F)C(F)(F)F)cc3)c(C(F)(F)F)c1)C2` [Example 57, 1,1,1,3,3,3-hexafluoro-2-(4′-((8-(methylsulfonyl)-3,8-diazabicyclo[3.2.1]octan-3-yl)methyl)-2′-(trifluoromethyl)-[1,1′-biphenyl]-4-yl)propan-2-ol] here?
Its IC50 is 50 to 250 nM.

`OC(c1ccc(-c2ccc(CN3CC4CCC(C3)N4Cc3ccncc3)cc2C(F)(F)F)cc1)(C(F)(F)F)C(F)(F)F` [Example 58, 1,1,1,3,3,3-hexafluoro-2-(4′-((8-(pyridin-4-ylmethyl)-3,8-diazabicyclo[3.2.1]octan-3-yl)methyl)-2′-(trifluoromethyl)-[1,1′-biphenyl]-4-yl)propan-2-ol] was tested. Which IC50 did it give?
Its IC50 is under 50 nM.

How did the IC50 turn out when `OC(c1ccc(-c2ccc(CN3CC4CCC(C3)N4Cc3ccncc3)cc2F)cc1)(C(F)(F)F)C(F)(F)F` [Example 59, 1,1,1,3,3,3-hexafluoro-2-(2′-fluoro-4′-((8-(pyridin-4-ylmethyl)-3,8-diazabicyclo[3.2.1]octan-3-yl)methyl)-[1,1′-biphenyl]-4-yl)propan-2-ol] was run?
The IC50 was over 250 nM.

How did the IC50 turn out when `Cc1cc(CN2CC3CCC(C2)N3S(=O)(=O)C(F)(F)F)ccc1-c1ccc(C(O)(C(F)(F)F)C(F)(F)F)cc1` [Example 60, 1,1,1,3,3,3-hexafluoro-2-(2′-methyl-4′-((8-((trifluoromethyl)sulfonyl)-3,8-diazabicyclo[3.2.1]octan-3-yl)methyl)-[1,1′-biphenyl]-4-yl)propan-2-ol] was run?
The IC50 was over 250 nM.

`CS(=O)(=O)N1C2CCC1CN(Cc1ccc(-c3ccc(C(O)(C(F)(F)F)C(F)(F)F)cc3)c(F)c1)C2` [Example 61, 1,1,1,3,3,3-hexafluoro-2-(2′-fluoro-4′-((8-(methylsulfonyl)-3,8-diazabicyclo[3.2.1]octan-3-yl)methyl)-[1,1′-biphenyl]-4-yl)propan-2-ol] was tested. Which IC50 did it give?
The IC50 was over 250 nM.

`Cc1cc(CN2CC3CCC(C2)N3S(=O)(=O)c2ccc(F)cc2)ccc1-c1ccc(C(O)(C(F)(F)F)C(F)(F)F)cc1` [Example 62, 1,1,1,3,3,3-hexafluoro-2-(4′-((8-((4-fluorophenyl)sulfonyl)-3,8-diazabicyclo[3.2.1]octan-3-yl)methyl)-2′-methyl-[1,1′-biphenyl]-4-yl)propan-2-ol] was tested. Which IC50 did it give?
The IC50 was over 250 nM.

For `Cc1cc(CN2CC3CCC(C2)N3Cc2ccncc2F)ccc1-c1ccc(C(O)(C(F)(F)F)C(F)(F)F)cc1` [Example 63, 1,1,1,3,3,3-hexafluoro-2-(4′-((8-((3-fluoropyridin-4-yl)methyl)-3,8-diazabicyclo[3.2.1]octan-3-yl)methyl)-2′-methyl-[1,1′-biphenyl]-4-yl)propan-2-ol], which IC50 is on record?
Its IC50 is 50 to 250 nM.

With `Cc1cc(CN2CC3CCC(C2)N3S(=O)(=O)C2CC2)ccc1-c1ccc(C(O)(C(F)(F)F)C(F)(F)F)cc1` [Example 64, 2-(4′-((8-(cyclopropylsulfonyl)-3,8-diazabicyclo[3.2.1]octan-3-yl)methyl)-2′-methyl-[1,1′-biphenyl]-4-yl)-1,1,1,3,3,3-hexafluoropropan-2-ol] as the molecule, how does the IC50 read?
The IC50 was 50 to 250 nM.

For `Cc1cc(CN2CC3CCC(C2)N3S(=O)(=O)Cc2ccccc2)ccc1-c1ccc(C(O)(C(F)(F)F)C(F)(F)F)cc1` [Example 65, 2-(4′-((8-(benzylsulfonyl)-3,8-diazabicyclo[3.2.1]octan-3-yl)methyl)-2′-methyl-[1,1′-biphenyl]-4-yl)-1,1,1,3,3,3-hexafluoropropan-2-ol], which IC50 is on record?
The IC50 was over 250 nM.

Which IC50 does the source give for `Cc1cc(CN2C3CCC2CN(Cc2ccc(-c4ccc(C(O)(C(F)(F)F)C(F)(F)F)cc4)c(C)c2)C3)ccn1` [Example 66, 1,1,1,3,3,3-hexafluoro-2-(2′-methyl-4′-((8-((2-methylpyridin-4-yl)methyl)-3,8-diazabicyclo[3.2.1]octan-3-yl)methyl)-[1,1′-biphenyl]-4-yl)propan-2-ol] here?
Its IC50 is over 250 nM.

`Cc1cc(CN2CC3CCC(C2)N3S(=O)(=O)CC(F)(F)F)ccc1-c1ccc(C(O)(C(F)(F)F)C(F)(F)F)cc1` [Example 67, 1,1,1,3,3,3-hexafluoro-2-(2′-methyl-4′-((8-((2,2,2-trifluoroethyl)sulfonyl)-3,8-diazabicyclo[3.2.1]octan-3-yl)methyl)-[1,1′-biphenyl]-4-yl)propan-2-ol] was tested. Which IC50 did it give?
Its IC50 is over 250 nM.

With `CCCS(=O)(=O)N1C2CCC1CN(Cc1ccc(-c3ccc(C(O)(C(F)(F)F)C(F)(F)F)cc3)c(C)c1)C2` [Example 68, 1,1,1,3,3,3-hexafluoro-2-(2′-methyl-4′-((8-(propylsulfonyl)-3,8-diazabicyclo[3.2.1]octan-3-yl)methyl)-[1,1′-biphenyl]-4-yl)propan-2-ol] as the molecule, how does the IC50 read?
The IC50 was over 250 nM.

With `CCS(=O)(=O)N1C2CCC1CN(Cc1ccc(-c3ccc(C(O)(C(F)(F)F)C(F)(F)F)cc3)c(C)c1)C2` [Example 69, 2-(4′-((8-(ethylsulfonyl)-3,8-diazabicyclo[3.2.1]octan-3-yl)methyl)-2'-methyl-[1,1′-biphenyl]-4-yl)-1,1,1,3,3,3-hexafluoropropan-2-ol] as the molecule, how does the IC50 read?
Its IC50 is over 250 nM.

`Cc1cc(CN2CC3CCC(C2)N3Cc2ccnc(O)c2)ccc1-c1ccc(C(O)(C(F)(F)F)C(F)(F)F)cc1` [Example 70, 4-((3-((4′-(1,1,1,3,3,3-hexafluoro-2-hydroxypropan-2-yl)-2-methyl-[1,1′-biphenyl]-4-yl)methyl)-3,8-diazabicyclo[3.2.1]octan-8-yl)methyl)pyridin-2-ol] was tested. Which IC50 did it give?
The IC50 was over 250 nM.

Which IC50 does the source give for `CC(=O)N1C2CCC1CN(Cc1ccc(-c3ccc(C(O)(C(F)(F)F)C(F)(F)F)cc3)c(C)c1)C2` [Example 71, 1-(3-((4′-(1,1,1,3,3,3-hexafluoro-2-hydroxypropan-2-yl)-2-methyl-[1,1′-biphenyl]-4-yl)methyl)-3,8-diazabicyclo[3.2.1]octan-8-yl)ethan-1-one] here?
The IC50 was 50 to 250 nM.

With `Cc1cc(CN2CC3CC2CN3Cc2ccncc2)ccc1-c1ccc(C(O)(C(F)(F)F)C(F)(F)F)cc1` (stereo not drawn) [Example 72, 1,1,1,3,3,3-hexafluoro-2-(2′-methyl-4′-((5-(pyridin-4-ylmethyl)-2,5-diazabicyclo[2.2.1]heptan-2-yl)methyl)-[1,1′-biphenyl]-4-yl)propan-2-ol] as the molecule, how does the IC50 read?
The IC50 was over 250 nM.

`Cc1cc(CN2CC3CCC(C2)N3S(C)(=O)=O)ccc1-c1ccc(C(O)(C(F)(F)F)C(F)(F)F)cc1` [Example 73, 1,1,1,3,3,3-hexafluoro-2-(2′-methyl-4′-((8-(methylsulfonyl)-3,8-diazabicyclo[3.2.1]octan-3-yl)methyl)-[1,1′-biphenyl]-4-yl)propan-2-ol] was tested. Which IC50 did it give?
Its IC50 is 50 to 250 nM.
